Source: publication PMC3609652 (The Biochemical journal, 2013)

Legend:
[1] = target: IgE^DNP (monoclonal anti-DNP IgE); assay: tryptophan fluorescence quenching titration with monovalent hapten; assay type: binding
[2] = target: IgE^dansyl (monoclonal anti-dansyl IgE, clone 27–74); assay: as above; assay type: binding

Row | Substance | Kd [1] | Kd [2]
1 | DNP | 22 ± 2 nM | 
2 | dansyl |  | 54 ± 4 nM
